Values of other authors, collected in patent US20220378861A1, “COMPOSITIONS AND METHODS FOR DELIVERING CANNABINOIDS USING MICRONEEDLE DEVICES TO THE SKIN” (AQUAVIT PHARMACEUTICALS, INC., priority 2019, published 2022).

Conditions: oral absorption, after extensive first pass liver metabolism

## CCCCCc1cc(O)c2c(c1)OC(C)(C)[C@@H]1CCC(C)=C[C@@H]21 [THC, tetrahydrocannabinol]
  bioavailability to the systemic circulation: 6%
